The values below come from patent US12544382B2, “2, 4, 6-tri-substituted pyrimidine compound as ATR kinase inhibitor” (BEIJING TIDE PHARMACEUTICAL CO., LTD., priority 2019, dated 2026).

The target of the assay is ATR kinase (Homo sapiens (Human), UniProt Q13535). Kind of assay: ATR kinase activity assay (time-resolved fluorescence, p53 substrate phosphorylation). It is filed as biochemical. As for the experimental part: Biotinylated protein derived from p53 (Eurofins, art. No.: 14-952) was phosphorylated with ATR kinase. The amount of phosphorylated protein was determined by time-resolved fluorescence in this assay. The amount of phosphorylated protein was detected by anti-p53-phospho-(serine 15)-K-specific antibody (Cisbio, art. No.: 61GSTDLA) and d2 labeled anti-GST antibody (Cisbio, art. No. 61P08KAE). Before the experiment, the following working solution was prepared as required: 1× reaction buffer (20 mM HEPES PH8.0, 1% glycerol, 0.01% Brij-35), dilution buffer (20 mM HEPES PH8.0, 1% glycerol, 0.01% Brij-35, 5 mM DTT and 1% BSA), stop solution (20 mM HEPES PH8.0, 1% glycerol, 0.01% Brij-35, 250 mM EDTA), detection buffer (50 mM HEPES pH7.0, 150 mM NaCl, 267 mM KF, 0.1% sodium cholate, 0.01% Tween-20, 0.0125% sodium azide). The reagents used above are purchased from Sigma or Invitrogen, except for those where the manufacturer was mentioned.
Chain of ATR kinase (Q13535 whole entry): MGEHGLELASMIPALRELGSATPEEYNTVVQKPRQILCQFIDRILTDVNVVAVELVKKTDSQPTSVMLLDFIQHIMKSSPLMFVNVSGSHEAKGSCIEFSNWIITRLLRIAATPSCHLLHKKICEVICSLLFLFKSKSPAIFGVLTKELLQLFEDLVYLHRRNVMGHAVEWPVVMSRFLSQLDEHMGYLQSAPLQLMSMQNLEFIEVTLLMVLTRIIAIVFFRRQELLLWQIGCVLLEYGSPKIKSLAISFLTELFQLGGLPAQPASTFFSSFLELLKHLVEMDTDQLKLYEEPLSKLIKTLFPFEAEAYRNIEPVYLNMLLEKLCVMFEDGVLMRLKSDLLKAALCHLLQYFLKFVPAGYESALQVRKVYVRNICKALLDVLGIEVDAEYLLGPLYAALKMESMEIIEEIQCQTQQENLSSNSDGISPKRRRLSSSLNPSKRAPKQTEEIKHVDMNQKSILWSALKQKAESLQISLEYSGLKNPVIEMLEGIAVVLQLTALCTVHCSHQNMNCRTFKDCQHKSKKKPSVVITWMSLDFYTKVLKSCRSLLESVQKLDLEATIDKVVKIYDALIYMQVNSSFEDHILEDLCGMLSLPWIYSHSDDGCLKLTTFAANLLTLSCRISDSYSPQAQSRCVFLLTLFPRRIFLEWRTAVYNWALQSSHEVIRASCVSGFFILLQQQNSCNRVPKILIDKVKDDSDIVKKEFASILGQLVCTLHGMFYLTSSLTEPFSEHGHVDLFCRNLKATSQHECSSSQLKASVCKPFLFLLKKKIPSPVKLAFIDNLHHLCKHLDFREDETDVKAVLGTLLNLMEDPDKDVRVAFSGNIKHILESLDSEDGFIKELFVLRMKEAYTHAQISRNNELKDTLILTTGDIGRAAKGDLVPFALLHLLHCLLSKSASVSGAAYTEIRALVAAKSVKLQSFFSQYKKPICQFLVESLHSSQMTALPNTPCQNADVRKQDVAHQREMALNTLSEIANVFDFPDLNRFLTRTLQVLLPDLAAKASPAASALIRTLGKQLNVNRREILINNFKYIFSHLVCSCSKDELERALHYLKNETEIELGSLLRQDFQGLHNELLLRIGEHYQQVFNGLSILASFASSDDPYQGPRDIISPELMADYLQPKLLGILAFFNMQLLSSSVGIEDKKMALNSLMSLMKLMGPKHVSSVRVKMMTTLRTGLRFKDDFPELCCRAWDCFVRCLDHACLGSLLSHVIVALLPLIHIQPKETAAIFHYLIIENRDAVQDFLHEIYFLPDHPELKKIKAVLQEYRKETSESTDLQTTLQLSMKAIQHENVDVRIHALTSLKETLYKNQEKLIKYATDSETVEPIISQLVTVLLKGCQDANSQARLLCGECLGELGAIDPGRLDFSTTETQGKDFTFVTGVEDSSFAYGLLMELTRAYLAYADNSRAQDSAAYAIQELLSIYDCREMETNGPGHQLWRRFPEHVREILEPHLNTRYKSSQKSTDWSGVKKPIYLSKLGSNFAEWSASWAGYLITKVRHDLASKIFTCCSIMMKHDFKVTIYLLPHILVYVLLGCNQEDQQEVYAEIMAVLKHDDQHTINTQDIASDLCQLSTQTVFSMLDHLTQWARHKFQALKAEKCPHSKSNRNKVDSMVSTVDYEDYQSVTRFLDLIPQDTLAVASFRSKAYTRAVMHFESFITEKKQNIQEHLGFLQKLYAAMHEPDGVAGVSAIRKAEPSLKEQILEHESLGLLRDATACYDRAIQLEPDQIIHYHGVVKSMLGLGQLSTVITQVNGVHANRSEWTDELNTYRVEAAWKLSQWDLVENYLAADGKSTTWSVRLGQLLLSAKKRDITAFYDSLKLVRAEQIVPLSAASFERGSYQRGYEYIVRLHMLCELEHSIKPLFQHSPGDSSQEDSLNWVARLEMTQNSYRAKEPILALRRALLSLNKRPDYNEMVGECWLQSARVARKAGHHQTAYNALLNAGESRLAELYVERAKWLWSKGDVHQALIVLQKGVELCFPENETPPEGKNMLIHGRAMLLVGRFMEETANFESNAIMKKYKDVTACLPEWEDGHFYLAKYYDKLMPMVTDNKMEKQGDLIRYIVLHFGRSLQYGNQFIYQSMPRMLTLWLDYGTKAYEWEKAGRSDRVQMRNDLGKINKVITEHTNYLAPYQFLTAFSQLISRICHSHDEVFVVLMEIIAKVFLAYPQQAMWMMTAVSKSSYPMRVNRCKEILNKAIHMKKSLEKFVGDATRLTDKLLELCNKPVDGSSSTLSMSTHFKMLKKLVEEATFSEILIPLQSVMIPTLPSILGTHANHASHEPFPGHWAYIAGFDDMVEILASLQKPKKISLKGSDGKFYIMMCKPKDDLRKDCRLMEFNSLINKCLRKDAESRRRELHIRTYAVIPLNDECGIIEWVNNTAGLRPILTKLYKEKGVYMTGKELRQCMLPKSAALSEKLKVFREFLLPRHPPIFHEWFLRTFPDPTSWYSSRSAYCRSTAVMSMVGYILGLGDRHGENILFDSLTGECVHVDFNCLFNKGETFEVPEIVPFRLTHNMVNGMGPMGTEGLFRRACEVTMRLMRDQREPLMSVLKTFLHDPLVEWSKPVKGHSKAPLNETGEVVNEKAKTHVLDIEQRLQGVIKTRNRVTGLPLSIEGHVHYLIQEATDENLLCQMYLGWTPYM
Chain of ATR kinase (Q8WXE1 whole entry partner): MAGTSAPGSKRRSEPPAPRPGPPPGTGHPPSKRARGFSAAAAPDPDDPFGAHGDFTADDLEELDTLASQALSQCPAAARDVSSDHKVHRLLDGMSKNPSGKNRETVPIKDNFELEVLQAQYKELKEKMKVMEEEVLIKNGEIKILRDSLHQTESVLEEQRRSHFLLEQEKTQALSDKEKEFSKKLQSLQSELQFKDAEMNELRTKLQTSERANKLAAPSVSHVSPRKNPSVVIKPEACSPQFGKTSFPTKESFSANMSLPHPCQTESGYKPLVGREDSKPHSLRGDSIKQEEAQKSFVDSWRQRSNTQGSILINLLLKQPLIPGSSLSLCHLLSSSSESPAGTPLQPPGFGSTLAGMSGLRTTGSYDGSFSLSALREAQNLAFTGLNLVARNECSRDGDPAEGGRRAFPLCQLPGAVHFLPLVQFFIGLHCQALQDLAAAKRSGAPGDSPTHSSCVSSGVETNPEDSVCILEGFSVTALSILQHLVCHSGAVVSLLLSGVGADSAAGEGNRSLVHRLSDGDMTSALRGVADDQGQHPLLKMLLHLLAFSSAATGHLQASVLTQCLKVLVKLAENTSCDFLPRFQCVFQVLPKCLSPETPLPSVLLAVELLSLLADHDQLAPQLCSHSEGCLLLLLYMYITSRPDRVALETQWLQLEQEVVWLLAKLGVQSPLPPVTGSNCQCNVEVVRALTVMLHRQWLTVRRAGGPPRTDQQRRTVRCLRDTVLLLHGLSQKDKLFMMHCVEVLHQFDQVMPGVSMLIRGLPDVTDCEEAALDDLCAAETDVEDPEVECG
Operations are as follows:
4× gradient dilution of compound solutions was prepared with 1× reaction buffer to obtain 9 compound solutions of different concentrations, and 2.5 μL 4× gradient dilution of compound solutions was added to a 384-well analysis plate (784075, Greiner). 4× p53 substrate working solution (40 nM) was prepared with 1× reaction buffer, and 2.5 μL 4× p53 substrate working solution was added to the 384-well analysis plate. 4×ATR/ATRIP working solution (12.8 ng/μL) was prepared with dilution buffer, and 2.5 μL 4×pATR/ATRIP working solution was added to the 384-well analysis plate. 4×ATP working solution (2 mM) was prepared with deionized water, 2.5 μL 4×ATP working solution was added to the 384-well analysis plate, and incubated at room temperature in dark for 30 minutes. 5 μL stop solution was added to the 384 analysis plate. Finally, 5 μL test mixture (0.084 ng/μL Anti-phospho-p53(ser15)-K and 5 ng/μL Anti-GST-d2) was added to the 384 well analysis plate, incubated overnight at room temperature, and the fluorescence signal was detected with ENVISION (Perkinelmer) instrument (excitation wavelength: 320 nm, emission wavelength: 665 nm and 615 nm). The inhibition rate in each well was calculated by the fluorescence intensity value of each hole: ER (Emission Ratio)=(Fluorescence intensity at 665 nm/Fluorescence intensity at 615 nm); inhibition rate=(ER positive-ER test compound)/(ER positive-ER negative)×100%, the IC50 value of compounds were calculated by standard parameter fitting software (GraphPad Prism 6.0).
Turning to `C[C@@H]1COCCN1c1cc(-c2cccc(S(C)(=O)=O)c2)nc(-c2ccnc3[nH]ccc23)n1` [Compound A4], the IC50 came out at 179 nM.
In the case of `C[C@@H]1COCCN1c1cc(-c2ccc(S(C)(=O)=O)cc2)nc(-c2ccnc3[nH]ccc23)n1` [Compound A5] it was greater than 10000 nM; in that of `Cc1c(-c2cc(N3CCOC[C@H]3C)nc(-c3ccnc4[nH]ccc34)n2)c(C(F)(F)F)nn1C` [Compound A8], 21 nM.
In the case of `Cc1ccc(S(C)(=O)=O)cc1-c1cc(N2CCOC[C@H]2C)nc(-c2ccnc3[nH]ccc23)n1` [Compound A9] it was 31 nM; in that of `Cc1ccc(S(=O)(=O)N(C)C)cc1-c1cc(N2CCOC[C@H]2C)nc(-c2ccnc3[nH]ccc23)n1` [Compound A10], 25 nM.
For `Cc1nn(CCCO)c(C)c1-c1cc(N2CCOC[C@H]2C)nc(-c2ccnc3[nH]ccc23)n1` [Compound A11] the value was 15 nM; for `Cc1nn(CC(C)(C)O)c(C)c1-c1cc(N2CCOC[C@H]2C)nc(-c2ccnc3[nH]ccc23)n1` [Compound A12], 44 nM.
On to `COc1ccc(S(=O)(=O)C(C)C)cc1-c1cc(N2CCOC[C@H]2C)nc(-c2ccnc3[nH]ccc23)n1` [Compound A13], for which 66 nM corresponded to half-maximal inhibition (IC50).
In the case of `COCCn1nc(C)c(-c2cc(N3CCOC[C@H]3C)nc(-c3ccnc4[nH]ccc34)n2)c1C` [Compound A14] it was 571 nM.
In the case of `Cc1nn(C(C)C)c(C)c1-c1cc(N2CCOC[C@H]2C)nc(-c2ccnc3[nH]ccc23)n1` [Compound A15] it was 21 nM; in that of `Cc1nn(C2CCNCC2)c(C)c1-c1cc(N2CCOC[C@H]2C)nc(-c2ccnc3[nH]ccc23)n1` [Compound A16], 4 nM.
For `C[C@@H]1COCCN1c1cc(-c2ccnn2C2CCCCC2)nc(-c2ccnc3[nH]ccc23)n1` [Compound A17] the value was 2270 nM; for `Cc1nn(CC2CNC2)c(C)c1-c1cc(N2CCOC[C@H]2C)nc(-c2ccnc3[nH]ccc23)n1` [Compound A18], 47 nM.
`Cc1nn(CC2COC2)c(C)c1-c1cc(N2CCOC[C@H]2C)nc(-c2ccnc3[nH]ccc23)n1` [Compound A19]: the concentration for half-maximal inhibition (IC50) is 18 nM.
In the case of `CCN1CCC(n2nc(C)c(-c3cc(N4CCOC[C@H]4C)nc(-c4ccnc5[nH]ccc45)n3)c2C)CC1` [Compound A20] it was 98 nM; in that of `Cc1nn(CCN(C)C)c(C)c1-c1cc(N2CCOC[C@H]2C)nc(-c2ccnc3[nH]ccc23)n1` [Compound A21], 56 nM.
Compound `Cc1nn(CCCN(C)C)c(C)c1-c1cc(N2CCOC[C@H]2C)nc(-c2ccnc3[nH]ccc23)n1` [Compound A22] came in with an IC50 of 81 nM.
In the case of `Cc1nn(C2CCN(S(C)(=O)=O)C2)c(C)c1-c1cc(N2CCOC[C@H]2C)nc(-c2ccnc3[nH]ccc23)n1` (stereo partly drawn) [Compound A23] it was 14 nM; in that of `Cc1nn(C2CCOCC2)c(C)c1-c1cc(N2CCOC[C@H]2C)nc(-c2ccnc3[nH]ccc23)n1` [Compound A24], 57 nM.
Turning to `CCNC(=O)Nc1ccc(-c2nc(-c3c(C)nn(C)c3C)cc(N3CCOC[C@H]3C)n2)cc1` [Compound A26], it took 2170 nM to reach half-maximal inhibition (IC50).
In the case of `Cc1nn(CC2CCOC2)c(C)c1-c1cc(N2CCOC[C@H]2C)nc(-c2ccnc3[nH]ccc23)n1` (stereo partly drawn) [Compound A28] it was 25 nM.
For `CC(C)S(=O)(=O)c1ccc(C(F)(F)F)c(-c2cc(N3CCOC[C@H]3C)nc(-c3ccnc4[nH]ccc34)n2)c1` [Compound A29] the value was 631 nM; for `CCN(C)S(=O)(=O)c1ccc(OC)c(-c2cc(N3CCOC[C@H]3C)nc(-c3ccnc4[nH]ccc34)n2)c1` [Compound A30], 110 nM; for `CCN1CCC(n2nc(C)c(-c3cc(N4CCOC[C@H]4C)nc(-c4ccnc5[nH]ccc45)n3)c2C)C1` (stereo partly drawn) [Compound A31], 48 nM.
For `Cc1nn(C2CCCN(C)C2)c(C)c1-c1cc(N2CCOC[C@H]2C)nc(-c2ccnc3[nH]ccc23)n1` (stereo partly drawn) [Compound A32] the value was 27 nM; for `CCN(C)S(=O)(=O)c1ccc(C(C)C)c(-c2cc(N3CCOC[C@H]3C)nc(-c3ccnc4[nH]ccc34)n2)c1` [Compound A33], 936 nM; for `Cc1ccc(S(=O)(=O)N(C)CCN(C)C)cc1-c1cc(N2CCOC[C@H]2C)nc(-c2ccnc3[nH]ccc23)n1` [Compound A34], 282 nM.
Regarding `CCN1CCN(S(=O)(=O)c2ccc(C)c(-c3cc(N4CCOC[C@H]4C)nc(-c4ccnc5[nH]ccc45)n3)c2)CC1` [Compound A35], the half-maximal inhibitory concentration (IC50) stood at 63 nM.
`Cc1ccc(S(=O)(=O)C2CCN(C)CC2)cc1-c1cc(N2CCOC[C@H]2C)nc(-c2ccnc3[nH]ccc23)n1` [Compound A36] came in with an IC50 of 91 nM.
In the case of `Cc1nn(C2CCN(C)CC2)c(C)c1-c1cc(N2CCOC[C@H]2C)nc(-c2ccnc3[nH]ccc23)n1` [Compound A37] it was 37 nM.
In the case of `Cc1nn(CC2CCCN(C)C2)c(C)c1-c1cc(N2CCOC[C@H]2C)nc(-c2ccnc3[nH]ccc23)n1` (stereo partly drawn) [Compound A38] it was 30 nM; in that of `Cc1ccc(S(=O)(=O)C(C)C)cc1-c1cc(N2CCOC[C@H]2C)nc(-c2ccnc3[nH]ccc23)n1` [Compound A39], 121 nM.
For `Cc1ccc(S(=O)(=O)NCCCO)cc1-c1cc(N2CCOC[C@H]2C)nc(-c2ccnc3[nH]ccc23)n1` [Compound A40] the value was 50 nM.
On to `Cc1nn(CS(C)(=O)=O)c(C)c1-c1cc(N2CCOC[C@H]2C)nc(-c2ccnc3[nH]ccc23)n1` [Compound A41], for which the IC50 is 11 nM.
In turn, `Cc1nn(C)c(C)c1-c1nc(-c2ccnc3[nH]ccc23)cc(N2CCOC[C@H]2C)n1` [Compound B1] came in with an IC50 of 255 nM.
For `C[C@@H]1COCCN1c1cc(-c2ccnc3[nH]ccc23)nc(-c2cccc(S(C)(=O)=O)c2)n1` [Compound B2] the value was 4300 nM; for `C[C@@H]1COCCN1c1cc(-c2ccnc3[nH]ccc23)nc(-c2ccc(S(C)(=O)=O)cc2)n1` [Compound B3], greater than 10000 nM.
In the case of `Cc1c(-c2nc(-c3ccnc4[nH]ccc34)cc(N3CCOC[C@H]3C)n2)cnn1C` [Compound B4] it was 1720 nM; in that of `Cc1nn(C)cc1-c1nc(-c2ccnc3[nH]ccc23)cc(N2CCOC[C@H]2C)n1` [Compound B5], 1610 nM.
In the case of `Cc1nn(C(C)C)c(C)c1-c1nc(-c2ccnc3[nH]ccc23)cc(N2CCOC[C@H]2C)n1` [Compound B6] it was 979 nM.
Regarding `Cc1nn(CC2CNC2)c(C)c1-c1nc(-c2ccnc3[nH]ccc23)cc(N2CCOC[C@H]2C)n1` [Compound B7], the IC50 was 340 nM.
In the case of `Cc1nn(C)c(C)c1-c1nc(-c2ccnc(C(F)F)c2)cc(N2CCOC[C@H]2C)n1` [Compound B8] it was greater than 10000 nM; in that of `Cc1nn(C)c(C)c1-c1nc(-c2ccnc3[nH]ccc23)nc(N2CCOC[C@H]2C)n1` [Compound C1], 41 nM.
Consider `Cc1c(-c2cc(N3CCOC[C@H]3C)nc(-c3ccc(C#N)c4[nH]ccc34)n2)c(C(F)(F)F)nn1C1CCNCC1` [Compound D5], for which the 50% inhibitory concentration (IC50) came to 108 nM.
Take `CSc1nc2cc(F)ccc2n1-c1nc(-c2c(C)nn(C3CCNCC3)c2C(F)(F)F)cc(N2CCOC[C@H]2C)n1` [Compound D31]: the IC50 stood at 2700 nM.
With `Cc1nn(C2CCNCC2)c(C(F)(F)F)c1-c1cc(N2CCOC[C@H]2C)nc(-n2c(CO)nc3cc(F)ccc32)n1` [Compound D32], the IC50 came out at 1770 nM. Against the preceding compound, the IC50 is about 1.5-fold lower.
For `CNc1nc2ccc(F)cc2n1-c1nc(-c2c(C(F)(F)F)nn(C3CCCNC3)c2C)cc(N2CCOC[C@@H]2C)n1` (stereo partly drawn) [Compound D34] the value was 73 nM; for `CCNC(=O)Nc1nc2ccccc2n1-c1nc(-c2c(C)nn(C3CCNCC3)c2C(F)(F)F)cc(N2CCOC[C@@H]2C)n1` [Compound D37], 71 nM.

A word on the IC50: it is the concentration at which inhibition is half-maximal. A high value points to weaker potency.
